Results taken from US10294202B2, “Pyrrolidinones as herbicides” (FMC Corporation, priority 2013, dated 2019).

Experiments:
barnyardgrass [1] = assay: Test A pre-/postemergence herbicide test; assay type: in vivo, Echinochloa crus-galli
Summary of the method: (§1)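 Directed soil spray to seeded pots (preemergence) or spray onto one- to two-leaf seedlings 2–10 cm tall (postemergence); loam/sand substrate throughout. Evaluated visually after about 10 days against untreated plants, 0 = no effect, 100 = complete control.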

pigweed = assay: Test A pre-/postemergence herbicide test; assay type: in vivo, Amaranthus retroflexus; conditions: for Plant response rating, Pigweed: 125 g ai/ha; for Pigweed plant response rating: 500 g ai/ha
Summary of the method: as §1

sedge, umbrella = assay: Test B flooded paddy test; assay type: in vivo, Cyperus difformis; conditions: 500 g ai/ha, Flood; scale of 0 to 100 where 0 is no effect and 100 is complete control
Summary of the method: (§2)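 Plants were grown to the 2-leaf stage, then pots were flooded to 3 cm above the soil and compound was applied directly into the paddy water, with that depth held throughout. After 13 to 15 days in a greenhouse, injury was rated visually against untreated controls on a 0 to 100 scale (100 = complete control).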

wheat = assay: Test A pre-/postemergence herbicide test; assay type: in vivo, Triticum aestivum; conditions: Postemergence, 125 g ai/ha; visual rating on 0 to 100 scale (0 no effect, 100 complete control), approx. 10 days
Summary of the method: as §1

barnyardgrass [2] = assay: Test B flooded paddy test; assay type: in vivo, Echinochloa crus-galli; conditions: 500 g ai/ha, Flood; scale of 0 to 100 where 0 is no effect and 100 is complete control
Summary of the method: as §2

blackgrass = assay: Test A postemergence herbicide test; assay type: in vivo, Alopecurus myosuroides
Summary of the method: (§3)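 Visual injury rating, 0 (no effect) to 100 (complete control), versus untreated controls ~10 days after treatment. Postemergence spray applied at one- to two-leaf stage, plants 2–10 cm tall, potted in loam soil/sand. Greenhouse-held.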

galium = assay: Test A postemergence herbicide test; assay type: in vivo, Galium aparine; conditions: 125 g ai/ha, visual rating on 0 to 100 scale (0 no effect, 100 complete control), approx. 10 days
Summary of the method: as §3

ragweed = assay: Test A pre-/postemergence herbicide test; assay type: in vivo, Ambrosia elatior; conditions: for Plant response rating, Ragweed: 125 g ai/ha; for Ragweed plant response rating: 500 g ai/ha
Summary of the method: as §1

ryegrass, Italian = assay: Test A pre-/postemergence herbicide test; assay type: in vivo, Lolium multiflorum; conditions: for Plant response rating, Ryegrass, Italian: 125 g ai/ha; for Ryegrass, Italian plant response rating: 500 g ai/ha
Summary of the method: as §1

corn = assay: Test A pre-/postemergence herbicide test; assay type: in vivo, Zea mays; conditions: Postemergence
Summary of the method: as §1

ducksalad = assay: Test B flooded paddy test; assay type: in vivo, Heteranthera limosa; conditions: 500 g ai/ha, Flood; scale of 0 to 100 where 0 is no effect and 100 is complete control
Summary of the method: as §2

rice = assay: Test B flooded paddy test; assay type: in vivo, Oryza sativa; conditions: 500 g ai/ha, Flood; scale of 0 to 100 where 0 is no effect and 100 is complete control
Summary of the method: as §2

kochia = assay: Test A pre-/postemergence herbicide test; assay type: in vivo, Kochia scoparia; conditions: for Plant response rating, Kochia: 125 g ai/ha; for Kochia plant response rating: 500 g ai/ha
Summary of the method: as §1

giant foxtail = assay: Test A pre-/postemergence herbicide test; assay type: in vivo, Setaria faberii
Summary of the method: as §1

[3] = Postemergence, 125 g ai/ha, visual rating on 0 to 100 scale (0 no effect, 100 complete control), approx. 10 days
[4] = Postemergence, 500 g ai/ha, 0 to 100 scale (0 no effect, 100 complete control)
[5] = Preemergence, 125 g ai/ha, 0 to 100 scale where 0 is no effect and 100 is complete control
[6] = Preemergence, 500 g ai/ha, visual rating on 0 to 100 scale (0 no effect, 100 complete control)
[7] = Postemergence, visual rating on 0 to 100 scale (0 no effect, 100 complete control), approx. 10 days
[8] = Preemergence, 0 to 100 scale where 0 is no effect and 100 is complete control
[9] = Preemergence, visual rating on 0 to 100 scale (0 no effect, 100 complete control)
[10] = 125 g ai/ha, visual rating on 0 to 100 scale (0 no effect, 100 complete control), approx. 10 days
[11] = 500 g ai/ha, 0 to 100 scale (0 no effect, 100 complete control)

SMILES	Plant response rating, Barnyardgrass (barnyardgrass [1]; [3])	Plant response rating, Barnyardgrass (barnyardgrass [1]; [4])	Plant response rating, Barnyardgrass (barnyardgrass [1]; [5])	Barnyardgrass plant response rating (barnyardgrass [1]; [6])	Plant response rating, Pigweed (pigweed; [7])	Plant response rating, Pigweed (pigweed; [8])	Pigweed plant response rating (pigweed; [9])	Plant response rating, Sedge, Umbrella (sedge, umbrella)	Plant response rating, Wheat (wheat)	Plant response rating, Barnyardgrass (barnyardgrass [2])	Plant response rating, Blackgrass (blackgrass; [10])	Plant response rating, Blackgrass (blackgrass; [11])	Plant response rating, Galium (galium)	Plant response rating, Ragweed (ragweed; [7])	Plant response rating, Ragweed (ragweed; [8])	Ragweed plant response rating (ragweed; [9])	Plant response rating, Ryegrass, Italian (ryegrass, Italian; [7])	Plant response rating, Ryegrass, Italian (ryegrass, Italian; [8])	Ryegrass, Italian plant response rating (ryegrass, Italian; [9])	Plant response rating, Corn (corn; [10])	other results
O=C1NCC(c2ccc(Br)c(Br)c2)C1C(=O)Nc1ccc(F)c(F)c1F (stereo not drawn) [Compound 342]	30	60	50	80	0	0	50	0	0	0	0	0	0	0	0	0	0	0	20	0	Plant response rating, Corn (corn; [11]): 40; Plant response rating, Ducksalad (ducksalad): 0; Plant response rating, Rice (rice): 0; Plant response rating, Kochia (kochia; [7]): 20; Plant response rating, Kochia (kochia; [8]): 0; Kochia plant response rating (kochia; [9]): 0; Plant response rating, Foxtail, Giant (giant foxtail; [3]): 40; Plant response rating, Foxtail, Giant (giant foxtail; [4]): 50; Plant response rating, Foxtail, Giant (giant foxtail; [5]): 70; Foxtail, Giant plant response rating (giant foxtail; [6]): 90
O=C1NCC(c2ccc(Br)c(Br)c2)C1C(=O)Nc1ccccc1Cl (stereo not drawn) [Compound 343]	0	30	20	80	0	0	0	0	0	0	0	0	0	0	0	0	0	0	0	0	Plant response rating, Corn (corn; [11]): 0; Plant response rating, Ducksalad (ducksalad): 0; Plant response rating, Rice (rice): 0; Plant response rating, Kochia (kochia; [7]): 0; Plant response rating, Kochia (kochia; [8]): 0; Kochia plant response rating (kochia; [9]): 0; Plant response rating, Foxtail, Giant (giant foxtail; [3]): 30; Plant response rating, Foxtail, Giant (giant foxtail; [4]): 60; Plant response rating, Foxtail, Giant (giant foxtail; [5]): 60; Foxtail, Giant plant response rating (giant foxtail; [6]): 80
